In ChEMBL document CHEMBL5506015, “Discovery of a Meisoindigo-Derived PROTAC as the ATM Degrader: Revolutionizing Colorectal Cancer Therapy via Synthetic Lethality with ATR Inhibitors” (J Med Chem, 2024):
Active and inactive are the calls of the source. No cut-off for these calls is given here.

How the values were obtained:
SW-620 [1] = assay: Downregulation of BCL2 level in human SW620 cells at 1.25 to 10 uM measured after 12 hrs by immunoblot analysis; assay type: functional, cell-based; details: dose 1.25-10 µM
A2780 = assay: Cytotoxicity against human A2780 cells assessed as reduction in cell viability incubated for 48 hrs by MTT assay; details: A2780, 48 h
SW13 = assay: Cytotoxicity against human SW13 cells assessed as reduction in cell viability incubated for 48 hrs by MTT assay; details: SW13, 48 h
LoVo = assay: Cytotoxicity against human LoVo cells assessed as reduction in cell viability incubated for 48 hrs by MTT assay
RKO = assay: Cytotoxicity against human RKO cells assessed as reduction in cell viability incubated for 48 hrs by MTT assay
SW-620 [2] = assay: Induction of apoptosis in human SW620 cells measured after 12 hrs by Annexin V-FITC/propidium iodide staining-based flow cytometric analysis; assay type: functional, cell-based; details: dose 5-10 µM
SW480 [3] = assay: Induction of apoptosis in human SW480 cells measured after 12 hrs by Annexin V-FITC/propidium iodide staining-based flow cytometric analysis; assay type: functional, cell-based; details: dose 5-10 µM
SW480 [4] = assay: Downregulation of BCL2 level in human SW480 cells at 5 to 20 uM measured after 8 hrs by immunoblot analysis; assay type: functional, cell-based; details: dose 5-20 µM
SW480 [5] = assay: Upregulation of cleaved caspase 3 level in human SW480 cells at 1.25 to 10 uM measured after 12 hrs by immunoblot analysis; assay type: functional, cell-based; details: dose 1.25-10 µM
K562 [6] = assay: Upregulation of cleaved caspase 3 level in human K562 cells at 5 to 20 uM measured after 8 hrs by immunoblot analysis; assay type: functional, cell-based; details: dose 5-20 µM
SW-620 [7] = assay: Downregulation of KDM4B level in human SW620 cells measured after 12 hrs by immunoblot analysis; assay type: functional, cell-based; details: dose 1.25-10 µM
SW-620 [8] = assay: Downregulation of KDM4B level in human SW620 cells at 10 uM measured after 12 hrs in presence of tert-butyl ((S)-1-((2S,4R)-4-hydroxy-2-((4-(4-methylthiazol-5-yl)benzyl)carbamoyl)pyrrolidin-1-yl)-3,3-dimethyl-1-oxobutan-2-yl)carbamate by immunoblot analysis; assay type: functional, cell-based
SW-620 [9] = assay: Downregulation of PROX1 level in human SW620 cells at 10 uM measured after 12 hrs in presence of tert-butyl ((S)-1-((2S,4R)-4-hydroxy-2-((4-(4-methylthiazol-5-yl)benzyl)carbamoyl)pyrrolidin-1-yl)-3,3-dimethyl-1-oxobutan-2-yl)carbamate by immunoblot analysis; assay type: functional, cell-based
[10] = Downregulation of ATM level in human SW620 cells transfected with ATM shRNA by immunoblot analysis; assay type: functional, SW-620
[11] = Downregulation of ATM level in human SW480 cells transfected with NC shRNA by immunoblot analysis; assay type: functional
[12] = Downregulation of ATM level in human SW480 cells transfected with ATM shRNA by immunoblot analysis; assay type: functional
[13] = Downregulation of ATM level in human HCT-116 cells transfected with NC shRNA by immunoblot analysis; assay type: functional
[14] = Downregulation of ATM level in human HCT-116 cells transfected with ATM shRNA by immunoblot analysis; assay type: functional
SW-620 [15] = assay: Cytotoxicity against human SW620 cells transfected with ATM shRNA assessed as reduction in cell viability measured after 48 hrs by MTT assay; details: SW-620, 48 h
SW480 [16] = assay: Cytotoxicity against human SW480 cells transfected with NC shRNA assessed as reduction in cell viability measured after 48 hrs by MTT assay; details: SW480, 48 h
SW480 [17] = assay: Cytotoxicity against human SW480 cells transfected with ATM shRNA assessed as reduction in cell viability measured after 48 hrs by MTT assay; details: SW480, 48 h
HCT-116 = assay: Cytotoxicity against human HCT-116 cells transfected with ATM shRNA assessed as reduction in cell viability measured after 48 hrs by MTT assay; details: HCT-116, 48 h
SW-620 [18] = assay: Induction of DNA damage in human SW620 cells assessed as accumulation of phosphorylated-chk2 (Thr68) at 10 uM by immunoblot analysis; assay type: functional, cell-based; details: time <= 24.0 hrs, TDE = time-dependent effect
K562 [19] = assay: Induction of DNA damage in human K562 cells assessed as accumulation of phosphorylated-chk2 (Thr68) at 20 uM by immunoblot analysis; assay type: functional, cell-based; details: time <= 12.0 hrs, TDE = time-dependent effect
SW-620 [20] = assay: Induction of DNA damage in human SW620 cells assessed as accumulation of phosphorylated-chk2 (Thr68) measured after 12 hrs by immunoblot analysis; assay type: functional, cell-based; details: dose 2.5-10 µM
K562 [21] = assay: Induction of DNA damage in human K562 cells assessed as accumulation of phosphorylated-chk2 (Thr68) measured after 8 hrs by immunoblot analysis; assay type: functional, cell-based
K562 [22] = assay: Induction of DNA damage in human K562 cells assessed as gamma-H2AX accumulation at 20 uM incubated for 8 hrs by immunoblot analysis; assay type: functional, cell-based
SW-620 [23] = assay: Antitumor activity against human SW620 cells xenografted in Balb/c nude mouse model assessed as reduction in tumor load at 15 mg/kg/day administered for 14 days in presence of AZD6738 by vernier caliper based analysis; assay type: functional, organism-based; details: time 14.0 day
[24] = Toxicity in Balb/c nude mouse assessed as drug tolerance at 15 mg/kg/day administered for 14 days; assay type: organism-based; details: in vivo, 336 h, time 14 day
[25] = Toxicity in Balb/c nude mouse assessed as drug tolerance at 15 mg/kg/day administered for 14 days in presence of AZD6738; assay type: organism-based; details: in vivo, 336 h, time 14 day
SW-620 [26] = assay: Antitumor activity against human SW620 cells xenografted in Balb/c nude mouse model assessed as increase in gamma-H2AX at 15 mg/kg/day measured after 14 days by Western blot analysis; assay type: functional, organism-based; details: time 14.0 day
SW-620 [27] = assay: Antitumor activity against human SW620 cells xenografted in Balb/c nude mouse model assessed as decrease in pro caspase 3 level at 15 mg/kg/day measured after 14 days by Western blot analysis; assay type: functional, organism-based; details: time 14.0 day
SW-620 [28] = assay: Antitumor activity against human SW620 cells xenografted in Balb/c nude mouse model assessed as increase in gamma-H2AX level at 15 mg/kg/day measured after 14 days by Western blot analysis; assay type: functional, organism-based; details: time 14.0 day
SW-620 [29] = assay: Antitumor activity against human SW620 cells xenografted in Balb/c nude mouse model assessed as increase in cleaved-caspase 3 level at 15 mg/kg/day measured after 14 days by Western blot analysis; assay type: functional, organism-based; details: time 14.0 day
SW-620 [30] = assay: Antitumor activity against human SW620 cells xenografted in Balb/c nude mouse model assessed as necrosis at 15 mg/kg/day measured after 14 days by H and E staining based analysis; assay type: functional, organism-based; details: time 14.0 day
SW-620 [31] = assay: Antitumor activity against human SW620 cells xenografted in Balb/c nude mouse model assessed as fibrosis at 15 mg/kg/day measured after 14 days by H and E staining based analysis; assay type: functional, organism-based; details: time 14.0 day
SW-620 [32] = assay: Downregulation of ATM level in human SW620 cells at 10 uM by immunoblot analysis; assay type: functional, cell-based; details: time <= 24.0 hrs, TDE = time-dependent effect
K562 [33] = assay: Downregulation of ATM level in human K562 cells at 20 uM by immunoblot analysis; assay type: functional, cell-based; details: time <= 24.0 hrs, TDE = time-dependent effect
SW-620 [34] = assay: Downregulation of ATM level in human SW620 cells measured after 12 hrs by immunoblot analysis; assay type: functional, cell-based; details: dose 2.5-10 µM
K562 [35] = assay: Downregulation of ATM level in human K562 cells measured after 8 hrs by immunoblot analysis; assay type: functional, cell-based; details: dose 5-20 µM

Question: What does the source list for Cc1ncsc1-c1ccc(CNC(=O)[C@@H]2C[C@@H](O)CN2C(=O)[C@@H](NC(=O)CCCCCn2cc(CCCN3C(=O)/C(=C4/C(=O)Nc5ccccc54)c4ccccc43)nn2)C(C)(C)C)cc1?
Answer: Activity (SW-620 [1]): Active; IC50 (A2780): 3.96 µM; IC50 (SW13): 3.31 µM; IC50 (LoVo): 6.73 µM; IC50 (RKO): 3.95 µM; Activity (SW-620 [2]): Dose-Dependent Effect; Activity (SW480 [3]): Dose-Dependent Effect; Activity (SW480 [4]): Active; Activity (SW480 [5]): Active; Activity (K562 [6]): Active; Activity (SW-620 [7]): Dose-Dependent Effect; Activity (SW-620 [8]): Active; Activity (SW-620 [9]): Active; Activity [10]: 25%; Activity [11]: 100%; Activity [12]: 23%; Activity [13]: 100%; Activity [14]: 15%; IC50 (SW-620 [15]): 9.81 µM; IC50 (SW480 [16]): 2.59 µM; IC50 (SW480 [17]): 12.1 µM; IC50 (HCT-116): 26.4 µM; Activity (SW-620 [18]): Tde; Activity (K562 [19]): Tde; Activity (SW-620 [20]): Dose-Dependent Effect; Activity (K562 [21]): Dose-Dependent Effect; Activity (K562 [22]): Active; Activity (SW-620 [23]): Active; Activity [24]: Non-Toxic; Activity [25]: Non-Toxic; Activity (SW-620 [26]): Active; Activity (SW-620 [27]): Active; Activity (SW-620 [28]): Active; Activity (SW-620 [29]): Active; Activity (SW-620 [30]): Active; Activity (SW-620 [31]): Active; Activity (SW-620 [32]): Tde; Activity (K562 [33]): Tde; Activity (SW-620 [34]): Dose-Dependent Effect; Activity (K562 [35]): Dose-Dependent Effect
